Experimental data taken from EPA's ToxValDB 9.5 (doi:10.2903/j.efsa.2018.5130).
≈ marks a conversion by molar mass, not a printed value.

Experiments:
Apis mellifera = details: acute, mortality
Bibionidae = details: chronic/long-term; duration: 28 days; development
Daphnia magna = details: chronic/long-term; duration: 21 days; reproduction
Folsomia candida = details: chronic/long-term; duration: 28 days; reproduction
Mus musculus = details: acute, oral, mortality
Neomysis kadiakensis = details: acute; duration: 96 hours; mortality
Phasianus sp. = details: acute; duration: 14 days; oral; unspecified; mortality
Pleurozium sp. = details: acute; duration: 72 hours; growth
Rattus norvegicus = details: developmental; development
Tagia sp. = details: chronic/long-term; growth
Aphidius rhopalosiphi = test: LR50; higher = less toxic; details: acute; mortality

SMILES: COP(=S)(OC)Oc1c(Cl)cc(C)cc1Cl [Tolclofos-methyl]
- NOAEL (Anas platyrhynchos; reproductive, duration: 19 weeks): 77 mg/kg-day
- LD50 (Anas platyrhynchos; short-term, duration: 8 days, oral, feed, mortality): > 1620 mg/kg-day
- LD50 (Apis mellifera; duration: 48 hours, oral, unspecified): > 264 µg/piece
- LD50 (Apis mellifera; duration: 72 hours, dermal): 456 µg/piece
- NOEC (Bibionidae): 0.25 mg/L
- NOEC (Daphnia magna): 0.026 mg/L
- NOEC (Folsomia candida): 11 mg/kg
- LD50 (Mus musculus; F): 3600 mg/kg-day
- LD50 (Mus musculus; M): 3500 mg/kg-day
- LC50 (Neomysis kadiakensis): 0.089 µg/mL (≈ 0.296 µM)
- LC50 (Oncorhynchus mykiss; acute, duration: 96 hours, mortality): 0.69 µg/mL (≈ 2.29 µM)
- NOEC (Oncorhynchus mykiss; chronic/long-term, growth): 0.012 mg/L
- LD50 (Phasianus sp.): > 5000 mg/kg-day
- NOEC (Pleurozium sp.): 0.14 mg/L
- NOAEL (Rattus norvegicus): 70.6 mg/kg-day
- NOEC (Tagia sp.): 60 mg/kg
- LR50 (Aphidius rhopalosiphi): 43.7 g/ha
